Patent US11000033B2, “Ketone or oxime compound, and herbicide” (NISSAN CHEMICAL CORPORATION, priority 2014, dated 2021)

Experiments:
Type in all cases: in vivo
Monochoria vaginalis = test: Test Example 1: herbicidal activity, application before weed generation in submerged conditions (symbol C); settings: application herbicide amount 320 g/ha
How it was run: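 Pre-emergence, paddy conditions: emulsifiable formulation diluted in water, dosed onto floodwater (4 cm depth) on sowing day. Alluvial soil; weeds sown mixed; rice transplanted at 2.5-leaf stage. Greenhouse 25–30 °C, 3 wk. Score 0–5 (5 = ≥90% kill, 0 = ≤5%).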

[1] = system: Echinochloa oryzacola Vasing.; test: Test Example 2: herbicidal activity, application during weed generation in submerged conditions (symbol A); settings: Table 23; application herbicide amount 320 g/ha; grade 0-5 by criteria of Test Example 1
How it was run: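 Treatment timing was the one- to two-leaf stage, with diluted emulsifiable compound dropped onto the paddy water (depth 4 cm) over alluvial soil. All three species grew from a mixed sowing in a 25° C. to 30° C. greenhouse. Injury was judged by eye 3 weeks on.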

Leptochloa chinensis = test: Test Example 3: herbicidal effect by foliage application, Wagner pot (symbol D); settings: application herbicide amount 320 g/ha
How it was run: (§1)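 The compound, formulated as an emulsion and diluted with water to a predetermined rate, is applied uniformly to leaves of two-week-old seedlings growing in submerged alluvial soil at 25–30 °C. Rice is included. Each plant is assessed 3 weeks later using defined criteria.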

Cyperus difformis = test: Test Example 3: herbicidal effect by foliage application, Wagner pot (symbol E); settings: application herbicide amount 320 g/ha
How it was run: as §1

Digitaria ciliaris = test: Test Example 4: herbicidal effect by soil treatment (symbol F); settings: application herbicide amount 320 g/ha
How it was run: (§2)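 Seeds were sown in sterilized diluvial soil, covered with about 1.5 cm of soil, and the soil surface was sprayed with a water-diluted emulsion of the compound at a predetermined rate. Plants grew in a greenhouse at 25° C. to 30° C.; effects were scored visually 3 weeks after application.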

Abutilon theophrasti = test: Test Example 4: herbicidal effect by soil treatment (symbol M); settings: application herbicide amount 320 g/ha
How it was run: as §2

Amaranthus retroflexus = test: Test Example 4: herbicidal effect by soil treatment (symbol N); settings: application herbicide amount 320 g/ha
How it was run: as §2

corn = test: Test Example 4: effect on crop by soil treatment (symbol c); settings: application herbicide amount 320 g/ha
How it was run: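 Crop seed is sown in spots together with several weed species in a box of sterilized diluvial soil. It is covered by about 1.5 cm of soil and kept in a greenhouse held between 25° C. and 30° C.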

soybean = test: Test Example 4: effect on crop by soil treatment (symbol d); settings: application herbicide amount 320 g/ha
How it was run: (§3)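 Soil-treatment setup: crop and weed seeds were spot-sown into sterilized diluvial soil, then buried beneath approximately 1.5 cm of it, and the boxes were housed in a 25–30° C. greenhouse.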

beet = test: Test Example 4: effect on crop by soil treatment (symbol f); settings: application herbicide amount 320 g/ha
How it was run: as §3

Lolium multiflorum Lam. = test: Test Example 5: herbicidal effect by foliage application, plastic box (symbol K); settings: 320 g/ha, 3 weeks after application
How it was run: (§4)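 Emulsion formulation, diluted with water to the intended rate, was applied uniformly to leaves by small sprayer. Recipients were 14-day greenhouse-grown seedlings (25° C. to 30° C.). Assessment followed at 3 weeks.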

Galium spurium = test: Test Example 5: herbicidal effect by foliage application, plastic box (symbol Q); settings: 320 g/ha, 3 weeks after application
How it was run: as §4

Row | Structure (SMILES) | Herbicidal effect grade, C: Monochoria vaginalis (Monochoria vaginalis) | Herbicidal effect grade, A: Echinochloa oryzacola Vasing. [1] | herbicidal effect on D (Leptochloa chinensis), grade 0-5 (Leptochloa chinensis) | herbicidal effect on E, grade 0-5 (Cyperus difformis) | F (Digitaria ciliaris) herbicidal effect grade (Digitaria ciliaris) | M (Abutilon theophrasti) herbicidal effect grade (Abutilon theophrasti) | N (Amaranthus retroflexus) herbicidal effect grade (Amaranthus retroflexus) | c (corn) effect on crop grade (corn) | d (soybean) effect on crop grade (soybean) | f (beet) effect on crop grade (beet) | K: Lolium multiflorum Lam., herbicidal effect grade (Lolium multiflorum Lam.) | Q: Galium spurium, herbicidal effect grade (Galium spurium) | K: Lolium multiflorum Lam., herbicidal effect (criteria 0-5) (Lolium multiflorum Lam.) | Q: Galium spurium, herbicidal effect (criteria 0-5) (Galium spurium)
1 | CON=C(C)C(c1ccc(F)cc1)C1CC(O)=C(c2c(C)cc(C)cc2C)C1=O (stereo not drawn) [1-049] | 0 (Herbicidal ratio of 5% or lower (almost no effect)) | 0 (Herbicidal ratio of 5% or lower (almost no effect)) | 0 (Herbicidal ratio of 5% or lower (almost no effect)) | 0 (Herbicidal ratio of 5% or lower (almost no effect)) | 0 (Herbicidal ratio of 5% or lower (almost no effect)) | 0 (Herbicidal ratio of 5% or lower (almost no effect)) | 0 (Herbicidal ratio of 5% or lower (almost no effect)) | 0 (Herbicidal ratio of 5% or lower (almost no effect)) | 0 (Herbicidal ratio of 5% or lower (almost no effect)) | 0 (Herbicidal ratio of 5% or lower (almost no effect)) | 0 (Herbicidal ratio of 5% or lower (almost no effect)) | 0 (Herbicidal ratio of 5% or lower (almost no effect)) |  | 
2 | CON=CCC1CC(O)=C(c2c(C)cc(C)cc2C)C1=O (stereo not drawn) [1-050] | 3 (Herbicidal ratio of 40% or higher and lower than 70%) | 3 (Herbicidal ratio of 40% or higher and lower than 70%) | 4 (Herbicidal ratio of 70% or higher and lower than 90%) | 5 (Herbicidal ratio of 90% or more (almost completely withered)) | 5 (Herbicidal ratio of 90% or more (almost completely withered)) | 1 (Herbicidal ratio of 5% or higher and lower than 20%) | 0 (Herbicidal ratio of 5% or lower (almost no effect)) | 0 (Herbicidal ratio of 5% or lower (almost no effect)) | 0 (Herbicidal ratio of 5% or lower (almost no effect)) | 0 (Herbicidal ratio of 5% or lower (almost no effect)) | 5 (Herbicidal ratio of 90% or more (almost completely withered)) | 0 (Herbicidal ratio of 5% or lower (almost no effect)) |  | 
3 | CCCCCCCON=C(C)CC1CC(O)=C(c2c(C)cc(C)cc2C)C1=O (stereo not drawn) [1-054] | 0 (Herbicidal ratio of 5% or lower (almost no effect)) | 3 (Herbicidal ratio of 40% or higher and lower than 70%) | 3 (Herbicidal ratio of 40% or higher and lower than 70%) | 0 (Herbicidal ratio of 5% or lower (almost no effect)) | 5 (Herbicidal ratio of 90% or more (almost completely withered)) | 0 (Herbicidal ratio of 5% or lower (almost no effect)) | 0 (Herbicidal ratio of 5% or lower (almost no effect)) | 0 (Herbicidal ratio of 5% or lower (almost no effect)) | 0 (Herbicidal ratio of 5% or lower (almost no effect)) | 0 (Herbicidal ratio of 5% or lower (almost no effect)) | 5 (Herbicidal ratio of 90% or more (almost completely withered)) | 0 (Herbicidal ratio of 5% or lower (almost no effect)) |  | 
4 | CCCC(CC1CC(O)=C(c2c(C)cc(C)cc2C)C1=O)=NOC (stereo not drawn) [1-062] | 1 (Herbicidal ratio of 5% or higher and lower than 20%) | 3 (Herbicidal ratio of 40% or higher and lower than 70%) | 3 (Herbicidal ratio of 40% or higher and lower than 70%) | 4 (Herbicidal ratio of 70% or higher and lower than 90%) | 5 (Herbicidal ratio of 90% or more (almost completely withered)) | 0 (Herbicidal ratio of 5% or lower (almost no effect)) | 0 (Herbicidal ratio of 5% or lower (almost no effect)) | 4 (Herbicidal ratio of 70% or higher and lower than 90%) | 0 (Herbicidal ratio of 5% or lower (almost no effect)) | 0 (Herbicidal ratio of 5% or lower (almost no effect)) | 5 (Herbicidal ratio of 90% or more (almost completely withered)) | 0 (Herbicidal ratio of 5% or lower (almost no effect)) |  | 
5 | CON=C(C)CC1CC(OC(=O)COc2ccccc2OC)=C(c2c(C)cc(C)cc2C)C1=O (stereo not drawn) [1-067] | 1 (Herbicidal ratio of 5% or higher and lower than 20%) | 4 (Herbicidal ratio of 70% or higher and lower than 90%) | 5 (Herbicidal ratio of 90% or more (almost completely withered)) | 5 (Herbicidal ratio of 90% or more (almost completely withered)) | 5 (Herbicidal ratio of 90% or more (almost completely withered)) | 5 (Herbicidal ratio of 90% or more (almost completely withered)) | 5 (Herbicidal ratio of 90% or more (almost completely withered)) | 3 (Herbicidal ratio of 40% or higher and lower than 70%) | 0 (Herbicidal ratio of 5% or lower (almost no effect)) | 0 (Herbicidal ratio of 5% or lower (almost no effect)) | 3 (Herbicidal ratio of 40% or higher and lower than 70%) | 2 (Herbicidal ratio of 20% or higher and lower than 40%) |  | 
6 | CON=C(CC1CC1)CC1CC(O)=C(c2c(C)cc(C)cc2C)C1=O (stereo not drawn) [1-070] | 0 (Herbicidal ratio of 5% or lower (almost no effect)) | 4 (Herbicidal ratio of 70% or higher and lower than 90%) | 4 (Herbicidal ratio of 70% or higher and lower than 90%) | 4 (Herbicidal ratio of 70% or higher and lower than 90%) | 4 (Herbicidal ratio of 70% or higher and lower than 90%) | 0 (Herbicidal ratio of 5% or lower (almost no effect)) | 0 (Herbicidal ratio of 5% or lower (almost no effect)) | 1 (Herbicidal ratio of 5% or higher and lower than 20%) | 0 (Herbicidal ratio of 5% or lower (almost no effect)) | 0 (Herbicidal ratio of 5% or lower (almost no effect)) | 5 (Herbicidal ratio of 90% or more (almost completely withered)) | 2 (Herbicidal ratio of 20% or higher and lower than 40%) |  | 
7 | CON=C(C)CC1CC(OC(=O)COc2cccc(C#N)c2)=C(c2c(C)cc(C)cc2C)C1=O (stereo not drawn) [1-074] | 4 (Herbicidal ratio of 70% or higher and lower than 90%) | 5 (Herbicidal ratio of 90% or more (almost completely withered)) | 5 (Herbicidal ratio of 90% or more (almost completely withered)) | 5 (Herbicidal ratio of 90% or more (almost completely withered)) | 5 (Herbicidal ratio of 90% or more (almost completely withered)) | 5 (Herbicidal ratio of 90% or more (almost completely withered)) | 5 (Herbicidal ratio of 90% or more (almost completely withered)) | 4 (Herbicidal ratio of 70% or higher and lower than 90%) | 0 (Herbicidal ratio of 5% or lower (almost no effect)) | 0 (Herbicidal ratio of 5% or lower (almost no effect)) |  |  | 5 (Herbicidal ratio of 90% or more (almost completely withered)) | 1 (Herbicidal ratio of 5% or higher and lower than 20%)
